Test results: ChEMBL document CHEMBL1154592, “Triazine and pyrimidine based ROCK inhibitors with efficacy in spontaneous hypertensive rat model” (Bioorg Med Chem Lett, 2009)
Values belong to the compound of their own block, whether it stands above or below them. The source made the active and inactive calls. The rule behind the calls is not given here.

What was measured:
[1] = biological target: Rho-associated protein kinase 1 (Homo sapiens, UniProt Q13464); experiment: Inhibition of ROCK1 by IMAP assay
Sequence of Rho-associated protein kinase 1 (Q13464 whole entry): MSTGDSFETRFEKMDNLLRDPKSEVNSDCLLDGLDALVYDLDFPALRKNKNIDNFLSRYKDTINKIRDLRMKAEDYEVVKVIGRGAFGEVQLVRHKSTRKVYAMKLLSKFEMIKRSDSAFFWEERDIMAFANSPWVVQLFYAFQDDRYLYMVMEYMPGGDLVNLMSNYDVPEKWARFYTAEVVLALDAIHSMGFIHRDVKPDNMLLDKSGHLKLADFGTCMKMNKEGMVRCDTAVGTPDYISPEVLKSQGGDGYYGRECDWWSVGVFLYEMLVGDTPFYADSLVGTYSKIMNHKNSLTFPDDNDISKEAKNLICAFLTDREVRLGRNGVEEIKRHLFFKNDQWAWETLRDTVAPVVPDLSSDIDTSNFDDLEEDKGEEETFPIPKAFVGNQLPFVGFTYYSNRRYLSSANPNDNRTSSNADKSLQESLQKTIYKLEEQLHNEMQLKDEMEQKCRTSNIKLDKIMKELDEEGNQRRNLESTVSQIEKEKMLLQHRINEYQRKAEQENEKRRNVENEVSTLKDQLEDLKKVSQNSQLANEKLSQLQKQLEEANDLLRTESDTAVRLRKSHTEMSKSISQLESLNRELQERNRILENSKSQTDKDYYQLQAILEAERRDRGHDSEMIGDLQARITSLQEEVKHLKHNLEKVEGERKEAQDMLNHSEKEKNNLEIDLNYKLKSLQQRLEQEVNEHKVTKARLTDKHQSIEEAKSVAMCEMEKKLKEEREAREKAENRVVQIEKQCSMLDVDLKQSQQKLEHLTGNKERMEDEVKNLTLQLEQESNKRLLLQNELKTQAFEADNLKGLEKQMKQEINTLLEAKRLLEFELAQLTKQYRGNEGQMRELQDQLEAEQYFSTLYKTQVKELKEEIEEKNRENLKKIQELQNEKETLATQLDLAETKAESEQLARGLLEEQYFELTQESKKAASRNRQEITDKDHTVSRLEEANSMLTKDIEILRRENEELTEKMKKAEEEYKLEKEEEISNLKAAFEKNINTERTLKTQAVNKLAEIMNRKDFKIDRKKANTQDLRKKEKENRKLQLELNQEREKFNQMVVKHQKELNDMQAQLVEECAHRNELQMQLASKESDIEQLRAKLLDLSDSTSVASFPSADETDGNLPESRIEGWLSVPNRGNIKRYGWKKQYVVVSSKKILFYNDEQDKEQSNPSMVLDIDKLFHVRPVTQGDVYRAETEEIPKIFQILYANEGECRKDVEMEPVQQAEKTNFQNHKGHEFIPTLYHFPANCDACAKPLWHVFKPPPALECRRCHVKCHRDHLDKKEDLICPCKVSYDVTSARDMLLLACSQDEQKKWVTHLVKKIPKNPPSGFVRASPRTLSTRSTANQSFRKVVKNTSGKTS

[2] = biological target: Serine/threonine-protein kinase PAK 2 (Homo sapiens) (UniProt Q13177); experiment: Inhibition of PAK2 at 2 uM
Sequence of Serine/threonine-protein kinase PAK 2 (Homo sapiens) (Q13177 whole entry): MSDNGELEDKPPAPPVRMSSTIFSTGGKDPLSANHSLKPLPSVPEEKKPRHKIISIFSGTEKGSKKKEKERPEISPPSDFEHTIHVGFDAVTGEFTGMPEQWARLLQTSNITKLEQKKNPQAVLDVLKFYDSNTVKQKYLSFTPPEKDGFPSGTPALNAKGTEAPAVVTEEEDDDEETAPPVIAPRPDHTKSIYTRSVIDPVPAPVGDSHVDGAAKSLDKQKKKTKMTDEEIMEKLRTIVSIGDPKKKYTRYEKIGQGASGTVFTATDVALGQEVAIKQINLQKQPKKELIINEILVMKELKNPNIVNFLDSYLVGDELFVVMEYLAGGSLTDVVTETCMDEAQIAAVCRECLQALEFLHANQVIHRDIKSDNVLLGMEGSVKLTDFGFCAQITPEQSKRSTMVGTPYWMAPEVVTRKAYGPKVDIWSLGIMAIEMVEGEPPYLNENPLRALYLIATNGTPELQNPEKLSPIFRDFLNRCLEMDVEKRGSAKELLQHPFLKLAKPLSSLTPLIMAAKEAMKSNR

[3] = biological target: Serine/threonine-protein kinase Nek2 (Homo sapiens) (UniProt P51955); experiment: Inhibition of NEK2 at 2 uM
Sequence of Serine/threonine-protein kinase Nek2 (Homo sapiens) (P51955 whole entry): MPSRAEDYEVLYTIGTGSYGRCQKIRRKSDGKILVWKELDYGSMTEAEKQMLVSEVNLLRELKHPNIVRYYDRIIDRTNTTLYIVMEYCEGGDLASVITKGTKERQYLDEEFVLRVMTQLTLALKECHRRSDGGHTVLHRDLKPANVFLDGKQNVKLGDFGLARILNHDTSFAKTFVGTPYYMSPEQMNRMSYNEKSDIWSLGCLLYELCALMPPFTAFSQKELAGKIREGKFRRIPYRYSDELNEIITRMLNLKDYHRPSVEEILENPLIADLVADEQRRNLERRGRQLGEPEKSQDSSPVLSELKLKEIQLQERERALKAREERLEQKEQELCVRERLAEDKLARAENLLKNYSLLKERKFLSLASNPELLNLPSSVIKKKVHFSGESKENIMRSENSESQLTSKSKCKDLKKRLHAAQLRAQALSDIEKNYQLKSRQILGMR

[4] = biological target: Hepatocyte growth factor receptor (Homo sapiens) (UniProt P08581); experiment: Inhibition of Met at 2 uM
[5] = Inhibition of MAPK at 2 uM
[6] = biological target: MAP kinase-activated protein kinase 2 (Homo sapiens) (UniProt P49137); experiment: Inhibition of MAPK2 at 2 uM
[7] = biological target: Tyrosine-protein kinase Lck (Homo sapiens) (UniProt P06239); experiment: Inhibition of LCK at 2 uM
[8] = biological target: Glycogen synthase kinase-3 beta (Homo sapiens) (UniProt P49841); experiment: Inhibition of GSK3-beta at 2 uM
[9] = biological target: Proto-oncogene tyrosine-protein kinase Src (Homo sapiens) (UniProt P12931); experiment: Inhibition of cSRC at 2 uM
[10] = biological target: Tyrosine-protein kinase CSK (Homo sapiens) (UniProt P41240); experiment: Inhibition of CSK at 2 uM
[11] = biological target: RAF proto-oncogene serine/threonine-protein kinase (Homo sapiens) (UniProt P04049); experiment: Inhibition of cRAF at 2 uM
Sequence of RAF proto-oncogene serine/threonine-protein kinase (Homo sapiens) (P04049 whole entry): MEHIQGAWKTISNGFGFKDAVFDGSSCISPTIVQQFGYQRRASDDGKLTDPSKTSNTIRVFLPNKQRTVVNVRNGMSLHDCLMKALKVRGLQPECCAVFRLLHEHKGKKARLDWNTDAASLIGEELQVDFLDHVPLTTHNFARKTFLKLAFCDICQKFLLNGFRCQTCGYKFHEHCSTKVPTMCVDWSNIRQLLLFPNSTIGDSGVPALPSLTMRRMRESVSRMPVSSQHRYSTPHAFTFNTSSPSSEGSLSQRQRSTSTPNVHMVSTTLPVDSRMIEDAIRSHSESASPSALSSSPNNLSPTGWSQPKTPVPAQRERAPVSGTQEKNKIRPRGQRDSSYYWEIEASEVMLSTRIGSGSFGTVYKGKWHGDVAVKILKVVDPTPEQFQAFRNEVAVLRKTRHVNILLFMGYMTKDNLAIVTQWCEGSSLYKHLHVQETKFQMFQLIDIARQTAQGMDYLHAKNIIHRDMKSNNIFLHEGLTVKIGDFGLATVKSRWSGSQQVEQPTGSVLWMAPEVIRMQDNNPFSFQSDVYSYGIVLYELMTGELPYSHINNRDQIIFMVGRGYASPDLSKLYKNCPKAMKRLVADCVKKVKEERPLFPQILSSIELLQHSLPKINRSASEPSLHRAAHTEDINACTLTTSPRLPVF

[12] = Inhibition of CK2 at 2 uM
[13] = biological target: Casein kinase I isoform delta (Homo sapiens) (UniProt P48730); experiment: Inhibition of CK1delta at 2 uM
[14] = biological target: Serine/threonine-protein kinase Chk1 (Homo sapiens) (UniProt O14757); experiment: Inhibition of CHK1 at 2 uM
Sequence of Serine/threonine-protein kinase Chk1 (Homo sapiens) (O14757 whole entry): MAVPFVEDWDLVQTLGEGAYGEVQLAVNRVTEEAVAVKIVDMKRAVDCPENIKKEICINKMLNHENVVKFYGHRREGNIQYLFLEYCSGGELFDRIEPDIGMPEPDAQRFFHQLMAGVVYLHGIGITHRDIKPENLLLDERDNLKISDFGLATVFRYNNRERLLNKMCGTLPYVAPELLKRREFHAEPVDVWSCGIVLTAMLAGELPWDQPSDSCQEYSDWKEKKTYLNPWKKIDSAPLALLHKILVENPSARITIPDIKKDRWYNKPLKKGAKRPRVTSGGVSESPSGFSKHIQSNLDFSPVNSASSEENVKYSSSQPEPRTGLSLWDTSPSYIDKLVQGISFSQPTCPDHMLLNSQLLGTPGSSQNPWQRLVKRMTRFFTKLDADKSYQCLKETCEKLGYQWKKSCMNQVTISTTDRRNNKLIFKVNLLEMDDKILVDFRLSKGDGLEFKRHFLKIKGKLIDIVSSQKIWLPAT

[15] = biological target: Cyclin-dependent kinase 2 (Homo sapiens) (UniProt P24941); experiment: Inhibition of CDK2 at 2 uM
[16] = biological target: Calcium/calmodulin-dependent protein kinase type IV (Homo sapiens) (UniProt Q16566); experiment: Inhibition of CaMK4 at 2 uM
[17] = biological target: Aurora kinase A (Homo sapiens) (UniProt O14965); experiment: Inhibition of AuroraA at 2 uM
[18] = biological target: BDNF/NT-3 growth factors receptor (Homo sapiens) (UniProt Q16620); experiment: Inhibition of TRKbeta at 2 uM
[19] = biological target: Platelet-derived growth factor receptor beta (Homo sapiens) (UniProt P09619); experiment: Inhibition of PDGFRbeta at 2 uM
Sequence of Platelet-derived growth factor receptor beta (Homo sapiens) (P09619 whole entry): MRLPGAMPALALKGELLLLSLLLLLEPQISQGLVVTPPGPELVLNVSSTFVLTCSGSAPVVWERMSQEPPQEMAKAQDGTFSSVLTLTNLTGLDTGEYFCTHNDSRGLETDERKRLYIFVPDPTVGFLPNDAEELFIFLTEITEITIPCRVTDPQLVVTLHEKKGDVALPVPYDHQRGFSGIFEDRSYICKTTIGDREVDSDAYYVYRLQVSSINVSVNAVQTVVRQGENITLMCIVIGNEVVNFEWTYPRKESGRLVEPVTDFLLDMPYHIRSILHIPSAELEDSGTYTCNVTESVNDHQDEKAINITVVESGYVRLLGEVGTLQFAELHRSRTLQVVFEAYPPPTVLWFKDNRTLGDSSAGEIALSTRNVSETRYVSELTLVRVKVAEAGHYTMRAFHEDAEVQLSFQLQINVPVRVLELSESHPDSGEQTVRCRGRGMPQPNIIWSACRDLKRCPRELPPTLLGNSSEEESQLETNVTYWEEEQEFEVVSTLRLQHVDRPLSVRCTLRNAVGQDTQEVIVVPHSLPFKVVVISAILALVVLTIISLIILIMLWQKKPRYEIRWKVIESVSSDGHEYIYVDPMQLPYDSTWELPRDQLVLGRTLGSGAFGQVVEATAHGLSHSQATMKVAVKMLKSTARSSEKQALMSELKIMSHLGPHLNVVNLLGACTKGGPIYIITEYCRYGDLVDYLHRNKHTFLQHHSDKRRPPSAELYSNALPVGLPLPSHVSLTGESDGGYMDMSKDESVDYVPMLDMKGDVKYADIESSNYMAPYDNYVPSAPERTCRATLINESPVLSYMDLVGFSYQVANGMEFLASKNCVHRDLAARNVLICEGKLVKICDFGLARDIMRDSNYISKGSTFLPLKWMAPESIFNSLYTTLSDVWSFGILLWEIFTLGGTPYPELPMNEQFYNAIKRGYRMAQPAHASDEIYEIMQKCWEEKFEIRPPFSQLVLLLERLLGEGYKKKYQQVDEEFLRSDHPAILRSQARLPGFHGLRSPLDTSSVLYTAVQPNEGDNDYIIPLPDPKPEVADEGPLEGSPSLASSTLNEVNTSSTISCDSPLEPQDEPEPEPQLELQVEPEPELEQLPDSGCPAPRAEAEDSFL

[20] = biological target: Dual specificity mitogen-activated protein kinase kinase 1 (Homo sapiens) (UniProt Q02750); experiment: Inhibition of MEK1 at 2 uM
[21] = biological target: Serine/threonine-protein kinase STK11 (Homo sapiens) (UniProt Q15831); experiment: Inhibition of LKB1 at 2 uM
Sequence of Serine/threonine-protein kinase STK11 (Homo sapiens) (Q15831 whole entry): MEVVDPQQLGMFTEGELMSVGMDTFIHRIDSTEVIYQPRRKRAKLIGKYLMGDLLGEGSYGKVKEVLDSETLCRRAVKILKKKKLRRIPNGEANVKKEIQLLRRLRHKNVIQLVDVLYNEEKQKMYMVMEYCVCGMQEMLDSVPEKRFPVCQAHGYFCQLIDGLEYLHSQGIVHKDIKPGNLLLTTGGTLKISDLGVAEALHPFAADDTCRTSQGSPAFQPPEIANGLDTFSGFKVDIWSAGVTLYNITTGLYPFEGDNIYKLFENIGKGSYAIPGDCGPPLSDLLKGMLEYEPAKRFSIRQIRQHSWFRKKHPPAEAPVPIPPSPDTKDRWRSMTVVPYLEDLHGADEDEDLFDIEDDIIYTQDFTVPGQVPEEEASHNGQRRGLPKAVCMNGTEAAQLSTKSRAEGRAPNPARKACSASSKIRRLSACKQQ

[22] = biological target: Insulin receptor (Homo sapiens) (UniProt P06213); experiment: Inhibition of IR at 2 uM
[23] = biological target: Epidermal growth factor receptor (Homo sapiens) (UniProt P00533); experiment: Inhibition of EGFR at 2 uM
[24] = biological target: Ribosomal protein S6 kinase alpha-3 (Homo sapiens) (UniProt P51812); experiment: Inhibition of Rsk2 at 2 uM
[25] = biological target: Tyrosine-protein kinase ZAP-70 (Homo sapiens) (UniProt P43403); experiment: Inhibition of Zap70 at 2 uM
Rattus norvegicus [26] = experiment: Decrease in mean arterial blood pressure in spontaneous hypertensive rat model at 3 mg/kg, sc; type: functional, organism-based; parameters: dose 3 mg/kg; conditions: Artery
Rattus norvegicus [27] = experiment: Decrease in mean arterial blood pressure in spontaneous hypertensive rat model at 10 mg/kg, sc; type: functional, organism-based; parameters: dose 10 mg/kg; conditions: Artery
Rattus norvegicus [28] = experiment: Decrease in mean arterial blood pressure in spontaneous hypertensive rat model at 30 mg/kg, sc; type: functional, organism-based; parameters: dose 30 mg/kg; conditions: Artery

Structure (SMILES): c1ccc2c(c1)CC(Nc1nc(Nc3ccncc3)nc(N3CCCNCC3)n1)C2
IC50 [1]: 11 nM

Structure (SMILES): c1ccc2c(c1)CC(Nc1nc(Nc3ccncc3)nc(N3CCNCC3)n1)C2
inhibition [2]: < 50%
inhibition [3]: < 50%
inhibition [4]: < 50%
inhibition [5]: < 50%
inhibition [6]: < 50%
inhibition [7]: < 50%
inhibition [8]: < 50%
inhibition [9]: < 50%
inhibition [10]: < 50%
inhibition [11]: < 50%
inhibition [12]: < 50%
inhibition [13]: < 50%
inhibition [14]: < 50%
inhibition [15]: < 50%
inhibition [16]: < 50%
inhibition [17]: < 50%
inhibition [18]: < 50%
inhibition [19]: < 50%
inhibition [20]: < 50%
inhibition [21]: < 50%
inhibition [22]: < 50%
inhibition [23]: < 50%
IC50 [1]: 6 nM
inhibition [24]: < 50%
inhibition [25]: < 50%
Activity (Rattus norvegicus [26]): Active
Activity (Rattus norvegicus [27]): Active

Structure (SMILES): c1ccc2c(c1)CCC2Nc1nc(Nc2ccncc2)nc(N2CCNCC2)n1 (stereo not drawn)
IC50 [1]: 185 nM

Structure (SMILES): C[C@@H](N)[C@H]1CC[C@H](C(=O)Nc2ccncc2)CC1
Activity (Rattus norvegicus [28]): Active

Structure (SMILES): c1cncc(Nc2nc(NC3Cc4ccccc4C3)nc(N3CCNCC3)n2)c1
IC50 [1]: 8400 nM

Structure (SMILES): c1ccc2c(c1)CC(Nc1cc(N3CCNCC3)nc(Nc3ccncc3)n1)C2
IC50 [1]: 14 nM

Structure (SMILES): c1ccc2c(c1)CC(Nc1cc(Nc3ccncc3)nc(N3CCNCC3)n1)C2
IC50 [1]: 2 nM

Structure (SMILES): C[C@H]1CN(c2nc(Nc3ccncc3)nc(NC3Cc4ccccc4C3)n2)CCN1
IC50 [1]: 135 nM

Structure (SMILES): C[C@@H]1CNCCN1c1nc(Nc2ccncc2)nc(NC2Cc3ccccc3C2)n1
IC50 [1]: 118 nM

Structure (SMILES): c1ccc(Nc2nc(NC3Cc4ccccc4C3)nc(N3CCNCC3)n2)cc1
IC50 [1]: 7400 nM

Structure (SMILES): c1ccc2c(c1)CCC(Nc1nc(Nc3ccncc3)nc(N3CCNCC3)n1)C2 (stereo not drawn)
IC50 [1]: 23 nM

Structure (SMILES): CNCCN(C)c1nc(Nc2ccncc2)nc(NC2Cc3ccccc3C2)n1
IC50 [1]: 81 nM

Continued by falling IC50 [1], values first:

IC50 [1]: 8300 nM
Structure (SMILES): c1ccc2c(c1)CC(Nc1nc(Nc3ccncc3)nc(N3CCCCC3)n1)C2

IC50 [1]: 1200 nM
Structure (SMILES): c1ccc2c(c1)CC(Nc1nc(Nc3ccncc3)cc(N3CCNCC3)n1)C2

IC50 [1]: 1000 nM
Structure (SMILES): c1ccc(Nc2nc(NC3Cc4ccccc4C3)nc(N3CCNCC3)n2)nc1

IC50 [1]: 890 nM
Structure (SMILES): c1cc(Nc2nc(NC3CCCC3)nc(N3CCNCC3)n2)ccn1

IC50 [1]: 400 nM
Structure (SMILES): c1ccc(CNc2nc(Nc3ccncc3)nc(N3CCNCC3)n2)cc1

IC50 [1]: 326 nM
Structure (SMILES): c1ccc(CCNc2nc(Nc3ccncc3)nc(N3CCNCC3)n2)cc1

IC50 [1]: 305 nM
Structure (SMILES): CN1CCN(c2nc(Nc3ccncc3)nc(NC3Cc4ccccc4C3)n2)CC1

IC50 [1]: 87 nM
Structure (SMILES): C[C@H]1CNCCN1c1nc(Nc2ccncc2)nc(NC2Cc3ccccc3C2)n1

IC50 [1]: 8 nM
Structure (SMILES): C[C@@H]1CN(c2nc(Nc3ccncc3)nc(NC3Cc4ccccc4C3)n2)CCN1

IC50 [1]: 8 nM
Structure (SMILES): c1ccc2c(c1)CC(Oc1nc(Nc3ccncc3)nc(N3CCNCC3)n1)C2
